Data on 7 molecules can be found in patent US8889876B2, “Histone deacetylase inhibitors and uses thereof” (Jiangsu Hengyi Pharmaceutical Co., Ltd., priority 2008, dated 2014).

In assay [1] the test system is Colo320 human rectal cancer cells. Put plainly: CCK-8 proliferation inhibition, Colo320. The format is cell-based. The following applies: CCK-8 method; for inhibition at 10 µM / inhibition at 100 µM: Homo sapiens, COLO 320. The method, then: (§1) Detecting the inhibition rate of the compound concentrations of 100 μM and 10 μM to Hut78 T-cell Leukemia cell, Jurkat E6-1 human T-cell lymphoma, PANC-1 human pancreatic cancer cells, A549 human lung cancer cells, K562 human chronic myeloid leukemia cells, Hep3B2.1-7 human liver cancer cells, MDA-MB-435s human breast cancer cells, Colo320 human rectal cancer cells and PC-3 human prostate cancer using CCK-8 method.
(Tetrazolium assays rely on reduction of a dye to a coloured formazan, in cell work by metabolically active cells.)

Assay [2] relates to histone deacetylase. Put plainly: in vitro inhibition of histone deacetylase by HDAC inhibitor screening kit (Biovision K340-100). The format is biochemical. The method, then:
An assay for determining the in vitro inhibition activity of the compound on histone deacetylase is conducted according to the specification of HDAC inhibitor screeing kid (Biovision Company/Catalog #K340-100). […]

Assay [3] concerns MDA-MB-435s human breast cancer cells. Put plainly: CCK-8 proliferation inhibition, MDA-MB-435s. The format is cell-based. The note with it: CCK-8 method; for inhibition at 10 µM / inhibition at 100 µM: Homo sapiens, MDA-MB-435S. How it is done: as §1
The test system of assay [4] is Jurkat E6-1 human T-cell lymphoma. As to the kind of experiment: CCK-8 proliferation inhibition, Jurkat E6-1. The format is cell-based. The note with it: for inhibition at 10 µM / inhibition at 100 µM: Homo sapiens; for inhibition at 10 µM: Jurkat E6.1, 10 μM; for inhibition at 100 µM: Jurkat E6.1, 100 μM. How it is done:
as §1

The subject of assay [5] is K562 human chronic myeloid leukemia cells. Put plainly: CCK-8 proliferation inhibition, K562. The format is cell-based. The note with it: for inhibition at 10 µM / inhibition at 100 µM: Homo sapiens; for inhibition at 10 µM: K562, 10 μM; for inhibition at 100 µM: K562, 100 μM. The method, then: as §1
Assay [6] concerns Hep3B2.1-7 human liver cancer cells. Put plainly: CCK-8 proliferation inhibition, Hep3B2.1-7. The format is cell-based. The note with it: CCK-8 method; for inhibition at 10 µM / inhibition at 100 µM: Homo sapiens, Hep3B. How it is done: as §1
In assay [7] the test system is PC-3 human prostate cancer. As to the kind of experiment: CCK-8 proliferation inhibition, PC-3. The format is cell-based. The note with it: CCK-8 method; for inhibition at 10 µM / inhibition at 100 µM: Homo sapiens. The method, then:
as §1

The subject of assay [8] is Hut78 T-cell Leukemia cell. As to the kind of experiment: CCK-8 proliferation inhibition, Hut78. The format is cell-based. The note with it: for inhibition at 10 µM / inhibition at 100 µM: Homo sapiens, read-out: Hut-78 (inhibition %); for inhibition at 10 µM: HuT78, 10 μM; for inhibition at 100 µM: HuT78, 100 μM. How it is done: as §1
Assay [9] has as its system A549 human lung cancer cells. Put plainly: CCK-8 proliferation inhibition, A549. The format is cell-based. The note with it: CCK-8 method; for inhibition at 10 µM / inhibition at 100 µM: Homo sapiens, A549. The method, then:
as §1

Assay [10] has as its system PANC-1 human pancreatic cancer cells. As to the kind of experiment: CCK-8 proliferation inhibition, PANC-1. The format is cell-based. The following applies: for inhibition at 10 µM / inhibition at 100 µM: Homo sapiens; for inhibition at 10 µM: PANC-1, 10 μM; for inhibition at 100 µM: PANC-1, 100 μM. The method, then: as §1

In general, inhibition refers to the drop in the measured response relative to a control, in per cent. With `Nc1cnccc1NC(=O)c1ccc(CNC(=O)OCc2ccccc2)cc1` [V-7], the inhibition at 10 µM in assay [1] (compound concentration 10 μM) was -7.1%; in assay [3] (compound concentration 10 μM) it was 4.5%; in assay [4] it was 27.1%; in [5], 51%; in assay [6] (compound concentration 10 μM), -12.3%; in assay [7] (compound concentration 10 μM), 0.6%. In addition, the inhibition at 10 µM in [8] was 18.2%; in assay [9] (compound concentration 10 μM), -7.8%; in assay [10], 5.7%. For the same molecule, the inhibition at 100 µM stood at 47.2% in assay [1] (compound concentration 100 μM); 85.5% in assay [3] (compound concentration 100 μM); 96% in assay [4]; 85.1% in assay [5]; 59.2% in assay [6] (compound concentration 100 μM); 36.9% in assay [7] (compound concentration 100 μM). For the same molecule, the inhibition at 100 µM in [8] worked out at 72.9%; in assay [9] (compound concentration 100 μM), 72.3%; in assay [10] it was 5.5%. For the same molecule, the results for the “Inhibition rate(%)” value in assay [2] (3.91 μM), in [2] (62.5 μM) and in [2] (2 mM) were 9.5%, 36.0% and 78.2%, respectively.
Turning to `Nc1ncccc1NC(=O)c1ccc(CNC(=O)OCc2ccccc2)cc1` [V-8, N-(2-amino-3-pyridyl)-4-(benzyloxyacylaminomethyl)benzamide], the inhibition at 10 µM in [1] (compound concentration 10 μM) is 7.1%; in assay [3] (compound concentration 10 μM), -20.7%; in assay [4] it was 5.4%; in assay [5] it was -1.3%; in [6] (compound concentration 10 μM), -10.2%; in assay [7] (compound concentration 10 μM) it was 5.2%. Moreover, the values for the inhibition at 10 µM in [8], in assay [9] (compound concentration 10 μM) and in assay [10] were 6.4%, -43.9% and 14.4%, respectively. For the same molecule, the inhibition at 100 µM in assay [1] (compound concentration 100 μM) was 16.8%; in assay [3] (compound concentration 100 μM), -10.4%; in assay [4] it was 23.7%; in [5] it was 38.1%; in assay [6] (compound concentration 100 μM), -12.1%; in assay [7] (compound concentration 100 μM), 15.9%. Further, the figures for the inhibition at 100 µM in assay [8], in assay [9] (compound concentration 100 μM) and in assay [10] were 15.8%, -19.4% and 11.9%, respectively. In addition, the “Inhibition rate(%)” value in [2] (3.91 μM) was 6.3%; in assay [2] (62.5 μM), 10.3%; in [2] (2 mM), 35.3%.
`Cc1ccc(COC(=O)NCc2ccc(C(=O)Nc3cccnc3N)cc2)cc1` [V-9, N-(2-amino-3-pyridyl)-4-[(4-methylbenzyloxyacyl)aminomethyl]benzamide]: the inhibition at 10 µM in assay [1] (compound concentration 10 μM) was 13%; in assay [3] (compound concentration 10 μM), -14.3%; in assay [4], 62.2%; in [5], 49.4%; in assay [6] (compound concentration 10 μM) it was 7.3%; in [7] (compound concentration 10 μM) it was 0%. Also, the inhibition at 10 µM in assay [8] is 15%; in assay [9] (compound concentration 10 μM), -44.3%; in [10] it was 10.5%. For the same molecule, the inhibition at 100 µM in assay [1] (compound concentration 100 μM) is 45.3%; in assay [3] (compound concentration 100 μM), 84.1%; in assay [4] it was 87.9%; in assay [5] it was 83.2%; in assay [6] (compound concentration 100 μM), 66.6%; in assay [7] (compound concentration 100 μM), 66.7%. The inhibition at 100 µM in assay [8] was 43.9%; in assay [9] (compound concentration 100 μM), -13.1%; in assay [10], 45.9%. The “Inhibition rate(%)” value in [2] (3.91 μM) is recorded as 2.8%; in assay [2] (62.5 μM), 16.8%; in assay [2] (2 mM) it was 36.7%.
As for `COc1cc(COC(=O)NCc2ccc(C(=O)Nc3cccnc3N)cc2)cc(OC)c1OC` [V-13, N-(2-amino-3-pyridyl)-4-[(3,4,5-trimethoxybenzyloxyacyl)aminomethyl]benzamide], the inhibition at 10 µM in assay [1] (compound concentration 10 μM) was 4.4%; in assay [3] (compound concentration 10 μM), -11.9%; in [4], 0.9%; in [5] it was -2.8%; in assay [6] (compound concentration 10 μM), 27%; in [7] (compound concentration 10 μM), 5.1%. Besides, the inhibition at 10 µM in assay [8] worked out at 10.8%; in assay [9] (compound concentration 10 μM), 24.6%; in [10] it was 22.3%. Also, the inhibition at 100 µM in assay [1] (compound concentration 100 μM) came to 4.2%; in [3] (compound concentration 100 μM), 11.8%; in assay [4], 22.8%; in [5], 30.3%; in [6] (compound concentration 100 μM), 26.2%; in assay [7] (compound concentration 100 μM), 19.3%. Moreover, the inhibition at 100 µM in [8] was 24%; in assay [9] (compound concentration 100 μM) it was 42.3%; in [10], 26.4%. Moreover, the “Inhibition rate(%)” value in [2] (3.91 μM) is listed as 1.9%; in assay [2] (62.5 μM) it was 7.8%; in [2] (2 mM) it was 50.0%.
As for `Nc1ncccc1NC(=O)c1ccc(CNC(=O)CCc2ccc(F)cc2)cc1` [V-60, N-(2-amino-3-pyridyl)-4-[3-(4-fluorophenyl)propionylaminomethyl]benzamide], the inhibition at 10 µM was -5.4% in [1] (compound concentration 10 μM); -7.8% in [3] (compound concentration 10 μM); 11% in [4]; 14.6% in assay [5]; 9.9% in assay [6] (compound concentration 10 μM); 1% in assay [7] (compound concentration 10 μM). The inhibition at 10 µM was 11.8% in assay [8], 3.7% in assay [9] (compound concentration 10 μM) and 27.3% in assay [10]. The inhibition at 100 µM in assay [1] (compound concentration 100 μM) was 2.3%; in assay [3] (compound concentration 100 μM), -3.4%; in assay [4], 33.3%; in assay [5], 42.7%; in [6] (compound concentration 100 μM) it was 31.7%; in assay [7] (compound concentration 100 μM), 8.1%. Also, the figures for the inhibition at 100 µM in [8], in assay [9] (compound concentration 100 μM) and in assay [10] were 28.5%, 12.2% and 26.1%, respectively.
Consider `COc1ccc(/C=C/C(=O)NCc2ccc(C(=O)Nc3ccncc3N)cc2)cc1OC` [V-94], for which the inhibition at 10 µM in assay [1] (compound concentration 10 μM) is -6.4%; in [3] (compound concentration 10 μM), 15.1%; in [4], 65.6%; in [5], 35%; in assay [6] (compound concentration 10 μM), 4.5%; in assay [7] (compound concentration 10 μM), 54.2%. Also, the inhibition at 10 µM was 12.9% in assay [8], 9.1% in assay [9] (compound concentration 10 μM) and 6% in assay [10]. Also, the inhibition at 100 µM in assay [1] (compound concentration 100 μM) was found to be 17.8%; in assay [3] (compound concentration 100 μM) it was 77%; in assay [4], 95.6%; in [5], 85.7%; in assay [6] (compound concentration 100 μM), 69.4%; in assay [7] (compound concentration 100 μM), 87.8%. The inhibition at 100 µM in assay [8] was 66.7%; in [9] (compound concentration 100 μM) it was 58.4%; in assay [10], 27.3%.
Regarding “N-(2-amino-3-pyridyl)-4-[(2-naphthylmethoxyacyl)aminomethyl)benzamide [V-23]”, the figures for the “Colo320 (inhibition %)” value in [1] (compound concentration 10 μM) and in [1] (compound concentration 100 μM) were 15.3% and 3.9%, respectively. The “435s(inhibition %)” value in [3] (compound concentration 10 μM) is 21.6%; in [3] (compound concentration 100 μM), 21.0%. Also, the “Jurkat E6-1 (inhibition %)” value is 33.7% in assay [4] (10 μM) and 13.9% in [4] (100 μM). The “K562 (inhibition %)” value was 27.2% in [5] (10 μM) and 11.9% in [5] (100 μM). Besides, the “Hep3B (inhibition %)” value in [6] (compound concentration 10 μM) was found to be 16.3%; in assay [6] (compound concentration 100 μM), 11.2%. Also, the “PC-3 (inhibition %)” value was 10.9% in assay [7] (compound concentration 10 μM) and 8.6% in assay [7] (compound concentration 100 μM). Further, the “Hut-78 (inhibition %)” value in [8] (10 μM) is reported as 20.7%; in assay [8] (100 μM), 10.4%. Besides, the “A549 (inhibition %)” value is reported as 4.7% in assay [9] (compound concentration 10 μM) and 3.5% in assay [9] (compound concentration 100 μM). Moreover, the results for the “PANC-1 (inhibition %)” value in assay [10] (10 μM) and in assay [10] (100 μM) were 7.2% and 0.5%, respectively.
